Measured values: patent US20030165854A1, “Marker genes responding to treatment with toxins” (priority 2000, published 2003)

Legend:
[1] = test system: rat liver cDNAs SEQ ID NOs: 1-61; type: in vivo, Han/Wistar rat; conditions: Strain HW
[2] = test system: rat liver cDNAs SEQ ID NOs: 62-202; assay: Abundance of cDNA clones in toxin-treated rat liver cDNA libraries (transcript imaging), Sprague-Dawley; type: in vivo; conditions: Strain SD
Method: Columns 1 and 2 show the SEQ ID NO and Clone ID of the rat cDNA clone, respectively.
Abundance of a clone was determined by counting the number of clones present in a master cluster.
Abundance of a particular cDNA in the library profile was determined by summing the total number of copies of the clones present in the master cluster in that library.

ClC(Cl)(Cl)Cl [CCI4, carbon tetrachloride]
Maximum Abundance, SEQ ID NO 16, Clone ID 700024834 [1]: 3 | Maximum Abundance, SEQ ID NO 18, Clone ID 700060675 [1]: 4 | Maximum Abundance, SEQ ID NO 19, Clone ID 700062240 [1]: 5 | Maximum Abundance, SEQ ID NO 23, Clone ID 700067778 [1]: 3 | Maximum Abundance, SEQ ID NO 24, Clone ID 700123633 [1]: 3 | Maximum Abundance, SEQ ID NO 25, Clone ID 700127949 [1]: 3 | Maximum Abundance, SEQ ID NO 26, Clone ID 700132557 [1]: 7 | Maximum Abundance, SEQ ID NO 27, Clone ID 700135733 [1]: 4 | Maximum Abundance, SEQ ID NO 28, Clone ID 700135850 [1]: 3 | Maximum Abundance, SEQ ID NO 29, Clone ID 700137416 [1]: 4 | Maximum Abundance, SEQ ID NO 30, Clone ID 700140375 [1]: 3 | Maximum Abundance, SEQ ID NO 31, Clone ID 700140450 [1]: 8 | Maximum Abundance, SEQ ID NO 32, Clone ID 700144406 [1]: 4 | Maximum Abundance, SEQ ID NO 33, Clone ID 700175249 [1]: 7 | Maximum Abundance, SEQ ID NO 34, Clone ID 700177158 [1]: 3 | Maximum Abundance, SEQ ID NO 36, Clone ID 700181614 [1]: 3 | Maximum Abundance, SEQ ID NO 37, Clone ID 700182016 [1]: 3 | Maximum Abundance, SEQ ID NO 38, Clone ID 700185871 [1]: 3 | Maximum Abundance, SEQ ID NO 39, Clone ID 700198357 [1]: 3 | Maximum Abundance, SEQ ID NO 40, Clone ID 700230123 [1]: 4 | Maximum Abundance, SEQ ID NO 41, Clone ID 700248367 [1]: 3 | Maximum Abundance, SEQ ID NO 42, Clone ID 700250877 [1]: 3 | Maximum Abundance, SEQ ID NO 43, Clone ID 700253694 [1]: 3 | Maximum Abundance, SEQ ID NO 44, Clone ID 700303850 [1]: 3 | Maximum Abundance, SEQ ID NO 45, Clone ID 700305380 [1]: 4 | Maximum Abundance, SEQ ID NO 46, Clone ID 700313077 [1]: 3 | Maximum Abundance, SEQ ID NO 47, Clone ID 700361225 [1]: 3 | Maximum Abundance, SEQ ID NO 48, Clone ID 700363174 [1]: 3 | Maximum Abundance, SEQ ID NO 49, Clone ID 700478138 [1]: 5 | Maximum Abundance, SEQ ID NO 50, Clone ID 700480077 [1]: 3 | Maximum Abundance, SEQ ID NO 52, Clone ID 700491990 [1]: 3 | Maximum Abundance, SEQ ID NO 53, Clone ID 700818852 [1]: 5 | Maximum Abundance, SEQ ID NO 54, Clone ID 700937735 [1]: 8 | Maximum Abundance, SEQ ID NO 56, Clone ID 701257766 [1]: 3 | Maximum Abundance, SEQ ID NO 58, Clone ID 701574951 [1]: 3 | Maximum Abundance, SEQ ID NO 59, Clone ID 701578278 [1]: 3 | Maximum Abundance, SEQ ID NO 60, Clone ID 701597659 [1]: 3 | Maximum Abundance, SEQ ID NO 61, Clone ID 701637512 [1]: 4 | Maximum Abundance, SEQ ID NO 14, Clone ID 700330824 ([1]; Sex F): 3

c1ccc2c(c1)cc1ccc3cccc4ccc2c1c34 [benzo(a)pyrene]
Maximum Abundance, SEQ ID NO 76, Clone ID 700059750 [2]: 3 | Maximum Abundance, SEQ ID NO 77, Clone ID 700123903 [2]: 3 | Maximum Abundance, SEQ ID NO 78, Clone ID 700135554 [2]: 3 | Maximum Abundance, SEQ ID NO 79, Clone ID 700175783 [2]: 4 | Maximum Abundance, SEQ ID NO 80, Clone ID 700176825 [2]: 4 | Maximum Abundance, SEQ ID NO 81, Clone ID 700177142 [2]: 4 | Maximum Abundance, SEQ ID NO 82, Clone ID 700185570 [2]: 3 | Maximum Abundance, SEQ ID NO 83, Clone ID 700244879 [2]: 3 | Maximum Abundance, SEQ ID NO 84, Clone ID 700246085 [2]: 4 | Maximum Abundance, SEQ ID NO 85, Clone ID 700302152 [2]: 10 | Maximum Abundance, SEQ ID NO 86, Clone ID 700305538 [2]: 13 | Maximum Abundance, SEQ ID NO 87, Clone ID 700307329 [2]: 3 | Maximum Abundance, SEQ ID NO 88, Clone ID 700323326 [2]: 4 | Maximum Abundance, SEQ ID NO 89, Clone ID 700328990 [2]: 4 | Maximum Abundance, SEQ ID NO 90, Clone ID 700330391 [2]: 3 | Maximum Abundance, SEQ ID NO 91, Clone ID 700363445 [2]: 6 | Maximum Abundance, SEQ ID NO 92, Clone ID 700480903 [2]: 3 | Maximum Abundance, SEQ ID NO 93, Clone ID 700482908 [2]: 3 | Maximum Abundance, SEQ ID NO 94, Clone ID 700935261 [2]: 3 | Maximum Abundance, SEQ ID NO 95, Clone ID 700939101 [2]: 3 | Maximum Abundance, SEQ ID NO 96, Clone ID 700950626 [2]: 3 | Maximum Abundance, SEQ ID NO 97, Clone ID 701316308 [2]: 3 | Maximum Abundance, SEQ ID NO 98, Clone ID 701316810 [2]: 3 | Maximum Abundance, SEQ ID NO 99, Clone ID 701327688 [2]: 3 | Maximum Abundance, SEQ ID NO 100, Clone ID 701337820 [2]: 3 | Maximum Abundance, SEQ ID NO 101, Clone ID 701432276 [2]: 4 | Maximum Abundance, SEQ ID NO 102, Clone ID 701432317 [2]: 3 | Maximum Abundance, SEQ ID NO 103, Clone ID 701472012 [2]: 3 | Maximum Abundance, SEQ ID NO 104, Clone ID 701472036 [2]: 3 | Maximum Abundance, SEQ ID NO 105, Clone ID 701517108 [2]: 3 | Maximum Abundance, SEQ ID NO 106, Clone ID 701710808 [2]: 4 | Maximum Abundance, SEQ ID NO 107, Clone ID 701241446 [2]: 3 | Maximum Abundance, SEQ ID NO 108, Clone ID 701711993 [2]: 5 | Maximum Abundance, SEQ ID NO 110, Clone ID 700192259 [2]: 5 | Maximum Abundance, SEQ ID NO 111, Clone ID 700269330 [2]: 4 | Maximum Abundance, SEQ ID NO 112, Clone ID 701317696 [2]: 5 | Maximum Abundance, SEQ ID NO 186, Clone ID 700068662 [2]: 6 | Maximum Abundance, SEQ ID NO 187, Clone ID 700933309 [2]: 5 | Maximum Abundance, SEQ ID NO 201, Clone ID 700062503 [2]: 3 | Maximum Abundance, SEQ ID NO 202, Clone ID 700490891 [2]: 4 | Maximum Abundance, SEQ ID NO 74, Clone ID 700137978 ([2]; Sex F): 7 | Maximum Abundance, SEQ ID NO 75, Clone ID 701709967 ([2]; Sex F): 4 | Maximum Abundance, SEQ ID NO 188, Clone ID 700024288 ([2]; Sex F): 2 | Maximum Abundance, SEQ ID NO 190, Clone ID 700066933 ([2]; Sex F): 2 | Maximum Abundance, SEQ ID NO 191, Clone ID 700146747 ([2]; Sex F): 3 | Maximum Abundance, SEQ ID NO 193, Clone ID 700858043 ([2]; Sex F): 1 | Maximum Abundance, SEQ ID NO 109, Clone ID 700250903 ([2]; Sex M): 11 | Maximum Abundance, SEQ ID NO 196, Clone ID 700062747 ([2]; Sex M): 2 | Maximum Abundance, SEQ ID NO 197, Clone ID 700124248 ([2]; Sex M): 3 | Maximum Abundance, SEQ ID NO 200, Clone ID 700282789 ([2]; Sex M): 3 | Maximum Abundance, SEQ ID NO 6, Clone ID 700062791 [1]: 4 | Maximum Abundance, SEQ ID NO 7, Clone ID 700250279 [1]: 6 | Maximum Abundance, SEQ ID NO 8, Clone ID 700312413 [1]: 4 | Maximum Abundance, SEQ ID NO 9, Clone ID 700308908 [1]: 6
